This data set in a line: Solubility of thioxanthone compound and tertiary amine compound in water-soluble organic solvent at 25° C.
[1] abbreviates: in 4-(2-hydroxyethyl)morpholine.
[2] abbreviates: in 3-morpholino-1,2-propanediol.

Turning to `CC(C)c1ccc2sc3ccccc3c(=O)c2c1` [2-isopropylthioxanthone], where the note is “in 4-ethylmorpholine”, the “solubility (25° C.)” value is on record as 30 mass %.
For `CCOC(=O)c1ccc(N(CC)CC)cc1` [4-diethylamino ethyl benzoate], the “solubility (25° C.)” value under setting [1] is recorded as 27 mass %.
Turning to `CCc1cc(CC)c2sc3ccccc3c(=O)c2c1` [Kayacure DETX-S, 2,4-diethylthioxanthone], the “solubility (25° C.)” value is, setting by setting: (in 2-(2-butoxyethoxy)ethanol) 17 mass %; (in 3-methylsulfolane) 4 mass %; under setting [2], 9 mass %; (in 4-(2-aminoethyl)morpholine) 14 mass %; under setting [1], 15 mass %; (in 4-acetylmorpholine) 20 mass %.
Turning to `CCOC(=O)c1ccc(N(C)C)cc1` [Kayacure EPA, 4-dimethylamino ethyl benzoate], the “solubility (25° C.)” value came out at 30 mass % (in 2-(2-butoxyethoxy)ethanol); 18 mass % (in 3-methylsulfolane); 30 mass % under setting [2]; 30 mass % (in 4-(2-aminoethyl)morpholine); 30 mass % under setting [1]; 35 mass % (in 4-acetylmorpholine). Besides, the “solubility (25° C.)” value amounted to 40 mass % (in 4-ethylmorpholine) and 18 mass % (in 4-hydroxypropylmorpholine).
